Experiments:
[1] = target: T1, human α1G T-type channels (Homo sapiens, UniProt O43497); test: T-type calcium channel block, whole cell patch clamp in HEK cells (α1G); format: cell-based; conditions: HEK cells, patch clamp, mainly non-inactivated protocol; values above 10 μM shown as 10 μM, below 0.30 μM shown as 0.30 μM; read-out: T-type Calcium Channel Block α1G IC50
T1 construct: expressed in transfected cells; host or cells: HEK 293

[2] = target: T2, human α1H T-type channels (Homo sapiens, UniProt O95180); test: T-type calcium channel block, whole cell patch clamp in HEK cells (α1H); format: cell-based; conditions: HEK cells, patch clamp, mainly non-inactivated protocol; values above 10 μM shown as 10 μM; read-out: T-type Calcium Channel Block α1H IC50
T2 construct: expressed in transfected cells; host or cells: HEK 293
T2 sequence (O95180 whole entry): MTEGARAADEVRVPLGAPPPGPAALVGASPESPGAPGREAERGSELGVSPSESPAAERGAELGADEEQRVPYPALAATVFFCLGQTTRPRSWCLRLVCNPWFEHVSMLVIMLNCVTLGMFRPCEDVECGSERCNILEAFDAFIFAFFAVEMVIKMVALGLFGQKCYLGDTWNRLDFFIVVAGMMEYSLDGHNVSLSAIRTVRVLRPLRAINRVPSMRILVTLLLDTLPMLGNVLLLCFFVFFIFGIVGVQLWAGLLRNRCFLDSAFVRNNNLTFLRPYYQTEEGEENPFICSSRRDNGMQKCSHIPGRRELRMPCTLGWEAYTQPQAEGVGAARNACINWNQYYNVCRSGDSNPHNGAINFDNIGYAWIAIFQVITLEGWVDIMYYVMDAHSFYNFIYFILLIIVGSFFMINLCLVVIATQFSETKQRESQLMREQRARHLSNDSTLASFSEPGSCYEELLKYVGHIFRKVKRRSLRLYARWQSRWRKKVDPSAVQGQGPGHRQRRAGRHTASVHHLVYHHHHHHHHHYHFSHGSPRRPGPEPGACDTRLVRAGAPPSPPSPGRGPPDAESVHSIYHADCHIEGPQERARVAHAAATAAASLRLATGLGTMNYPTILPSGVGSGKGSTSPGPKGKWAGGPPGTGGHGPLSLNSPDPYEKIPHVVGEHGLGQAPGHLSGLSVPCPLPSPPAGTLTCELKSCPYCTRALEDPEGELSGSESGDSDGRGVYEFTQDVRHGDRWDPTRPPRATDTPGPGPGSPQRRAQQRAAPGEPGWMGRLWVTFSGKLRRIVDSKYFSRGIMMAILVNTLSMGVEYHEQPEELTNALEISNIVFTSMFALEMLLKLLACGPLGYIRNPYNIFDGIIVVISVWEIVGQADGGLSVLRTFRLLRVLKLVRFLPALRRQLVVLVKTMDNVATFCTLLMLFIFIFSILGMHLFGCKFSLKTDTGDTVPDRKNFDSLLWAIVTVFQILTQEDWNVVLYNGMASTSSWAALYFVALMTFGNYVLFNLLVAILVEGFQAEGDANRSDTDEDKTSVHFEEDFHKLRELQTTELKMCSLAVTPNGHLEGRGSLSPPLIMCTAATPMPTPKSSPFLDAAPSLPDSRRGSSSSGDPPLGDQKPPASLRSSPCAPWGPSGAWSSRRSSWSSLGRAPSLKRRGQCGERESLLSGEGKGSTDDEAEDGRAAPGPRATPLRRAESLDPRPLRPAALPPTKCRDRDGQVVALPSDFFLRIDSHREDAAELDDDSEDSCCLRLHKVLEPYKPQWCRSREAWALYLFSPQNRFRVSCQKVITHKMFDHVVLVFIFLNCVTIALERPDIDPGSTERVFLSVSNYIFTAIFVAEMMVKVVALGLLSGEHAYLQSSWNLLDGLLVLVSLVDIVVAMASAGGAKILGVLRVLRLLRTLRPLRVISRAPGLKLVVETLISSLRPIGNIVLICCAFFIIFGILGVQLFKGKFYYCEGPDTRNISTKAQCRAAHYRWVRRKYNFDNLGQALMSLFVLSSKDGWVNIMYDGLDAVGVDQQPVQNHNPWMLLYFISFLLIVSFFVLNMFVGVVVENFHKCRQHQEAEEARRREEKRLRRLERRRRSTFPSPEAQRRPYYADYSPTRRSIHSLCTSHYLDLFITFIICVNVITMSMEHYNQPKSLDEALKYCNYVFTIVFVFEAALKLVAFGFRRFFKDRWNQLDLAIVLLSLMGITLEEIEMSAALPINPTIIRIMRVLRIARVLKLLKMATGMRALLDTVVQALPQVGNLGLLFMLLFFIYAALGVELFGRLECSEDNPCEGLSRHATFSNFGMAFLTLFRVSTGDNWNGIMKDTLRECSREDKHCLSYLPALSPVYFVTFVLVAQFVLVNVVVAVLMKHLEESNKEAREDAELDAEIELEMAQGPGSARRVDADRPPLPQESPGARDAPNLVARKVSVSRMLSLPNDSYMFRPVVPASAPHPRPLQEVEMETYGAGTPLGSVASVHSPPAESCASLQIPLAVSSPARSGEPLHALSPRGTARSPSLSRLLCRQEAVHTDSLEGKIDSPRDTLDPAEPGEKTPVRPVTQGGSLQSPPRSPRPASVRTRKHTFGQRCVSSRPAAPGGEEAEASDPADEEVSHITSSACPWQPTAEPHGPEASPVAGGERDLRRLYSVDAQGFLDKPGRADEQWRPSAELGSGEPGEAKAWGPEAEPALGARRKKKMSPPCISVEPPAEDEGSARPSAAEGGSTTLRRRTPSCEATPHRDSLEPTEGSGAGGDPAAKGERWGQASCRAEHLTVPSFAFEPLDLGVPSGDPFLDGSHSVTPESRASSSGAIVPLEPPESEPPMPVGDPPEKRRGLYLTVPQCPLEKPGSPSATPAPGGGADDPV

T1 sequence (O43497 whole entry): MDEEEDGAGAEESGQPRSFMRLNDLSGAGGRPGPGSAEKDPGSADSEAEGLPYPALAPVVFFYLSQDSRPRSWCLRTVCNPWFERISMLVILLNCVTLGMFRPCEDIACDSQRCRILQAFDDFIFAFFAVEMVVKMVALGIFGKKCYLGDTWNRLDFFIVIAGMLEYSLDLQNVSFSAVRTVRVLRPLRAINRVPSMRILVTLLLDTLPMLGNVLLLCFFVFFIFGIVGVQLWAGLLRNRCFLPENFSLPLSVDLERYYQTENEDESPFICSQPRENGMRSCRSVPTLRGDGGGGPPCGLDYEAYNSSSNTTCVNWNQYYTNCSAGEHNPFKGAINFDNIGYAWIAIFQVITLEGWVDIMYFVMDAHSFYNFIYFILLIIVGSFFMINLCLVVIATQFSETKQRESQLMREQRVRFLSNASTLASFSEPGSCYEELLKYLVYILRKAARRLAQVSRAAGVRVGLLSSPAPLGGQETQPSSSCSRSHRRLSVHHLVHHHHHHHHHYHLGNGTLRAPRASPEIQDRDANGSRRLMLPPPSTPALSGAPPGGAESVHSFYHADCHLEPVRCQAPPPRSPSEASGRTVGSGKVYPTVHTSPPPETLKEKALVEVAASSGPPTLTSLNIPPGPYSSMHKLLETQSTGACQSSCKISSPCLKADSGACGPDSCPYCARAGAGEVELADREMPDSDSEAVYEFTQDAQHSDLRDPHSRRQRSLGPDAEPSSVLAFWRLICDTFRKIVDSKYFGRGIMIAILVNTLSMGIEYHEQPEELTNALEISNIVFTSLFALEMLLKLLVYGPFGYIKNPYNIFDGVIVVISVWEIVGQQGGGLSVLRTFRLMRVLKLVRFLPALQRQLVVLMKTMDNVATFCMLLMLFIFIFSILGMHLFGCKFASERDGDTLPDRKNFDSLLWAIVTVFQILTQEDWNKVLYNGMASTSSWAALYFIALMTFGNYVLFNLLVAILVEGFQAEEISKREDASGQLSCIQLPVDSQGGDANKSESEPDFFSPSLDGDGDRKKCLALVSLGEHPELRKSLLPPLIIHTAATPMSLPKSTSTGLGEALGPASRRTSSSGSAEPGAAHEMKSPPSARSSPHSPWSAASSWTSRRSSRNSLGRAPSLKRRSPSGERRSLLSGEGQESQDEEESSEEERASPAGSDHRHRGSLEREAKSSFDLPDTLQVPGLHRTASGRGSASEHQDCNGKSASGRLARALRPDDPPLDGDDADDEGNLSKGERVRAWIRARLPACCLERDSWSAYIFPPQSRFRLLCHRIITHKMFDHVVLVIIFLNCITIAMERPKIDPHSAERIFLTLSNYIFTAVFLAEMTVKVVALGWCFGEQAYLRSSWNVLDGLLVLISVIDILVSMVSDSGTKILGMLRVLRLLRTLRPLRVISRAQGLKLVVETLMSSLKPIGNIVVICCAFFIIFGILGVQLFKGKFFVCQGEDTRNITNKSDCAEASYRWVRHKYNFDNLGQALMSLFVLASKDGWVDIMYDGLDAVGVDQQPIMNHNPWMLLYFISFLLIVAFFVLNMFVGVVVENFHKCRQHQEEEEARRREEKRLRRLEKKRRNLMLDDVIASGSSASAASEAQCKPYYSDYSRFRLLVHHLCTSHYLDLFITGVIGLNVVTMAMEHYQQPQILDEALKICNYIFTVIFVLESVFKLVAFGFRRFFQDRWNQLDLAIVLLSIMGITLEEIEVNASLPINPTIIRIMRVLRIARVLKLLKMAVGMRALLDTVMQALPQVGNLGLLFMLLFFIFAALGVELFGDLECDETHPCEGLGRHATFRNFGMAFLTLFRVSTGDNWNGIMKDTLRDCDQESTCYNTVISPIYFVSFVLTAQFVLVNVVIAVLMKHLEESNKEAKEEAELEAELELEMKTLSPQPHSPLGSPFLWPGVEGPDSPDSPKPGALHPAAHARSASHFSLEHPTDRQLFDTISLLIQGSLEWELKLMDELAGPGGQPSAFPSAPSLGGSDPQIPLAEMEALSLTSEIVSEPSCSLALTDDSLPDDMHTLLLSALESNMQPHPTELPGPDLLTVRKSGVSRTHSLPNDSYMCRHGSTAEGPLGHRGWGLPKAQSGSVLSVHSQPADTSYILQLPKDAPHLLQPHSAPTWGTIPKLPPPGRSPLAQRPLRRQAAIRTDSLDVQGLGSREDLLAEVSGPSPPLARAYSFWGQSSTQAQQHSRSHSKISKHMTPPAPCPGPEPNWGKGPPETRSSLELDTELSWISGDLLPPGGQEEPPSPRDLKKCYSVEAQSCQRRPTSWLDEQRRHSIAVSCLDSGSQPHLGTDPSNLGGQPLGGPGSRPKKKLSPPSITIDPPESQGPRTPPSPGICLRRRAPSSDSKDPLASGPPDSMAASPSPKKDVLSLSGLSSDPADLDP

IC50 [1] [nM] | IC50 [2] [nM] | SMILES
430 | 930 | COc1cc(OC)cc(C(=O)NCC2CCN(CCNS(=O)(=O)C(C)(C)C)CC2)c1 [Compound 576, N-((1-(2-(1,1-dimethyethylsulfonamido)ethyl)piperidin-4-yl)methyl)-3,5-dimethoxybenzamide]
< 300 | 120 | O=C(CN1CCC(CNC(=O)c2cccc(OC(F)(F)F)c2)CC1)NC1CCCC1 [Compound 536, N-((1-(2-(cyclopentylamino)-2-oxoethyl)piperidin-4-yl)methyl)-3-(trifluoromethoxy)benzamide]
1270 | 1010 | CC(C)(C)S(=O)(=O)NCCN1CCC(CNC(=O)c2cccc(Cl)c2)CC1 [Compound 573, 3-chloro-N-((1-(2-(1,1-dimethylethylsulfonamido)ethyl)piperidin-4-yl)methyl)benzamide]
> 10000 | > 10000 | CCONC(=O)CN1CCC(CNC(=O)c2cc(C(F)(F)F)cc(C(F)(F)F)c2)CC1 [Compound 486, N-((1-(2-(ethoxyamino)-2-oxoethyl)piperidin-4-yl)methyl)-3,5-bis(trifluoromethyl)benzamide]
4100 | > 10000 | CC(C)(C)C(C)(O)C(=O)N1CCC(CNC(=O)c2cc(C(F)(F)F)cc(C(F)(F)F)c2)CC1 (stereo not drawn) [Compound 89, N-((1-(2-hydroxy-2,3,3-trimethylbutanoyl)piperidin-4-yl)methyl)-3,5-bis(trifluoromethyl)benzamide]
> 10000 | > 10000 | CCCNC(=O)CN1CCC(CNC(=O)c2cccc(C(F)(F)F)c2)CC1 [Compound 449, N-((1-(2-oxo-2-(propylamino)ethyl)piperidin-4-yl)methyl)-3-(trifluoromethyl)benzamide]
910 | 750 | CC(C)NC(=O)CN1CCC(CNC(=O)c2cc(F)cc(C(F)(F)F)c2)CC1 [Compound 350, 3-fluoro-N-((1-(2-(isopropylamino)-2-oxoethyl)piperidin-4-yl)methyl)-5-(trifluoromethyl)benzamide]
< 300 | 100 | COCC(C)(C)NC(=O)CN1CCC(CNC(=O)c2cc(F)cc(C(F)(F)F)c2)CC1 [Compound 564, 3-fluoro-N-((1-(2-(1-methoxy-2-methylpropan-2-ylamino)-2-oxoethyl)piperidin-4-yl)methyl)-5-(trifluoromethyl)benzamide]
< 300 | 300 | O=C(NCC1CCN(CC(=O)N2CCC(F)CC2)CC1)c1cc(C(F)(F)F)cc(C(F)(F)F)c1 [Compound 349, N-((1-(2-(4-fluoropiperidin-1-yl)-2-oxoethyl)piperidin-4-yl)methyl)-3,5-bis(trifluoromethyl)benzamide]
< 300 | 450 | CC(C)(C)C(=O)NCCN1CCC(CNC(=O)c2cc(Cl)cc(C(F)(F)F)c2)CC1 [Compound 301, 3-chloro-N-((1-(2-pivalamidoethyl)piperidin-4-yl)methyl)-5-(trifluoromethyl)benzamide]
700 | 600 | CC(C)(C)C(=O)NC1(CN2CCC(CNC(=O)c3cc(C(F)(F)F)cc(C(F)(F)F)c3)CC2)CC1 [Compound 361, N-((1-((1-pivalamidocyclopropyl)methyl)piperidin-4-yl)methyl)-3,5-bis(trifluoromethyl)benzamide]
< 300 | 150 | CC(C)(C)OC(=O)NCCN1CCC(CNC(=O)c2cc(Br)cc(C(F)(F)F)c2)CC1 [Compound 41, tert-butyl 2-(4-((3-bromo-5-(trifluoromethyl)benzamido)methyl)piperidin-1-yl)ethylcarbamate]
> 10000 | > 10000 | O=C(/C=C/c1cc(F)cc(F)c1)NCC1CCN(CCNS(=O)(=O)C2CC2)CC1 [Compound 231, (E)-N-((1-(2-(cyclopropanesulfonamido)ethyl)piperidin-4-yl)methyl)-3-(3,5-difluorophenyl)acrylamide]
1230 | 880 | O=C(NCC1CCN(CCNS(=O)(=O)CCCF)CC1)c1cc(F)cc(C(F)(F)F)c1 [Compound 308, 3-fluoro-N-((1-(2-(3-fluoropropylsulfonamido)ethyl)piperidin-4-yl)methyl)-5-(trifluoromethyl)benzamide]
< 300 | 280 | COc1cc(F)cc(C(=O)NCC2CCN(CC(=O)N(C)C3(C)CCC3)CC2)c1 [Compound 584, 3-fluoro-5-methoxy-N-((1-(2-(methyl(1-methylcyclobutyl)amino)-2-oxoethyl)piperidin-4-yl)methyl)benzamide]
< 300 | 110 | CCCNC(=O)CN1CCC(CNC(=O)c2cc(C(F)(F)F)cc(C(F)(F)F)c2)CC1 [Compound 345, N-((1-(2-oxo-2-(propylamino)ethyl)piperidin-4-yl)methyl)-3,5-bis(trifluoromethyl)benzamide]
> 10000 | 8540 | CC1(NC(=O)CN2CCC(CNC(=O)c3ccccc3)CC2)CCC1 [Compound 528, N-((1-(2-(1-methylcyclobutylamino)-2-oxoethyl)piperidin-4-yl)methyl) benzamide]

IC50 [1] [nM] | IC50 [2] [nM] | SMILES
< 300 | 180 | CC1(NC(=O)CN2CCC(CNC(=O)c3cccc(Br)c3)CC2)CCC1 [Compound 480, 3-bromo-N-((1-(2-(1-methylcyclobutylamino)-2-oxoethyl)piperidin-4-yl)methyl) benzamide]
< 300 | 440 | COc1cc(C(=O)NCC2CCN(CCNS(=O)(=O)C3CC3)CC2)cc(C(F)(F)F)c1 [Compound 235, N-((1-(2-(cyclopropanesulfonamido)ethyl)piperidin-4-yl)methyl)-3-methoxy-5-(trifluoromethyl)benzamide]
360 | 1420 | O=C(NCC1CCN(C(=O)CNC2CCCC2)CC1)c1cc(F)cc(C(F)(F)F)c1 [Compound 273, N-((1-(2-(cyclopentylamino)acetyl)piperidin-4-yl)methyl)-3-fluoro-5-(trifluoromethyl)benzamide]
< 300 | 110 | CC1(NC(=O)CN2CCC(CNC(=O)c3cccc(OC(F)(F)F)c3)CC2)CCC1 [Compound 483, N-((1-(2-(1-methylcyclobutylamino)-2-oxoethyl)piperidin-4-yl)methyl)-3-(trifluoromethoxy)benzamide]
< 300 | 30 | CC(C(=O)NC(C)(C)C(F)(F)F)N1CCC(CNC(=O)c2cc(F)cc(Cl)c2)CC1 (stereo not drawn) [Compound 547, 3-chloro-5-fluoro-N-((1-(1-oxo-1-(1,1,1-trifluoro-2-methylpropan-2-ylamino)propan-2-yl)piperidin-4-yl)methyl)benzamide]
< 300 | 250 | O=C(NCC1CCN(CC2(NS(=O)(=O)CCC(F)(F)F)CC2)CC1)c1cc(C(F)(F)F)cc(C(F)(F)F)c1 [Compound 360, 3,5-bis(trifluoromethyl)-N-((1-((1-(3,3,3-trifluoropropylsulfonylamido)cyclopropyl)methyl)piperidin-4-yl)methyl)benzamide]
> 10000 | > 10000 | CC1CCCN(CC(=O)N2CCC(CNC(=O)c3cc(F)cc(C(F)(F)F)c3)CC2)C1 (stereo not drawn) [Compound 268, 3-fluoro-N-((1-(2-(3-methylpiperidin-1-yl)acetyl)piperidin-4-yl)methyl)-5-(trifluoromethyl)benzamide]
< 300 | 340 | O=C(NCC1CCN(CCNS(=O)(=O)C2CCCC2)CC1)c1cc(F)cc(C(F)(F)F)c1 [Compound 307, N-((1-(2-(cyclopentanesulfonamido)ethyl)piperidin-4-yl)methyl)-3-fluoro-5-(trifluoromethyl)benzamide]
< 300 | 60 | CCC(C)(C)NC(=O)CN1CCC(CNC(=O)c2cc(F)cc(C(F)(F)F)c2)CC1 [Compound 353, 3-fluoro-N-((1-(2-oxo-2-(tert-pentylamino)ethyl)piperidin-4-yl)methyl)-5-(trifluoromethyl)benzamide]
1750 | 1160 | CC(C)(F)C(=O)NCCN1CCC(CNC(=O)c2cc(F)cc(C(F)(F)F)c2)CC1 [Compound 336, 3-fluoro-N-((1-(2-(2-fluoro-2-methylpropanamido)ethyl)piperidin-4-yl)methyl)-5-(trifluoromethyl)benzamide]
8240 | > 10000 | CCCNC(=O)CN1CCC(CNC(=O)c2cccc(OC(F)(F)F)c2)CC1 [Compound 453, N-((1-(2-oxo-2-(proyplamino)ethyl)piperidin-4-yl)methyl)-3-(trifluoromethoxy)benzamide]
3760 | 6190 | CCOC(=O)NC(CN1CCC(CC(=O)NCc2cc(Cl)cc(Cl)c2)CC1)C(C)(C)C (stereo not drawn) [Compound 224, ethyl 1-(4-(2-(3,5-dichlorobenzyl-amino)-2-oxoethyl)piperidin-1-yl)-3,3-dimethylbutan-2-ylcarbamate]
> 10000 | 9240 | O=C(/C=C/c1cc(F)cc(F)c1)NCC1CCN(CCNC(=O)CCC(F)(F)F)CC1 [Compound 314, (E)-N-(2-(4-((3-(3,5-difluorophenyl)acrylamido)methyl)piperidin-1-yl)ethyl)-4,4,4-trifluorobutanamide]
> 10000 | > 10000 | C[C@@H]1CCCCN1CC(=O)N1CCC(CNC(=O)c2cc(F)cc(C(F)(F)F)c2)CC1 [Compound 279, (R)-3-fluoro-N-((1-(2-(2-methyl-piperidin-1-yl)acetyl)piperidin-4-yl)methyl)-5-(trifluoromethyl)benzamide]
> 10000 | > 10000 | Cc1cc(F)cc(C(=O)NCC2CCN(CC(=O)NC(C)C)CC2)c1 [Compound 437, 3-fluoro-N-((1-(2-(isopropylamino)-2-oxoethyl)piperidin-4-yl)methyl)-5-methylbenzamide]
1250 | 1040 | Cc1cc(F)cc(C(=O)NCC2CCN(CCNS(=O)(=O)C(C)(C)C)CC2)c1 [Compound 575, N-((1-(2-(1,1-dimethylethylsulfonamido)ethyl)piperidin-4-yl)methyl)-3-fluoro-5-methylbenzamide]
